The results in this text go back to BindingDB's records for doi:10.1021/jm970459c (Cambridge Neuroscience, 1998).

Structures can show the parent of a compound that is named as a salt.

This experiment deals with Sigma receptor (Cavia porcellus). Briefly: Binding assay for the sigma receptor sites is performed by utilizing [3H]N,N-di-o-tolylguanidine ([3H]DTG) and guinea pig brain membrane suspensions.
With `CCc1cccc(N(C)C(N)=Nc2cc(Br)cc([S+](C)[O-])c2Br)c1` (configuration not stated), the half-maximal inhibitory concentration (IC50) (as a rule, the midpoint of a concentration-inhibition curve) was 1950 nM. That is a single-digit micromolar value.
The same measure for `CCc1cccc(N(C)C(N)=Nc2cc(SC)cc(CC)c2Br)c1`: 299 nM; for `CCc1cccc(N(C)C(N)=Nc2cccc(Cl)c2Cl)c1` [N'-(2,3-Dichloro-phenyl)-N-(3-ethyl-phenyl)-N-methyl-guanidine; hydrochloride]: 97 nM.
The figure for `CCc1cccc(N(C)C(N)=Nc2cc(Br)cc(CC)c2Br)c1` [N'-(2,5-Dibromo-3-ethyl-phenyl)-N-(3-ethyl-phenyl)-N-methyl-guanidine; hydrochloride] is 40 nM.
The same measure for `CCc1cccc(N(C)C(N)=Nc2cc(Br)cc(S(C)(=O)=O)c2Br)c1` [N'-(2,5-Dibromo-3-methanesulfonyl-phenyl)-N-(3-ethyl-phenyl)-N-methyl-guanidine; hydrochloride]: 3380 nM.
Regarding `CCc1cccc(N(C)C(N)=Nc2cc(Br)cc(OC(F)(F)F)c2Br)c1` [N'-(2,5-Dibromo-3-trifluoromethoxy-phenyl)-N-(3-ethyl-phenyl)-N-methyl-guanidine; hydrochloride], the IC50 turned out to be 113 nM.
The figure for `CCc1cccc(N(C)C(N)=Nc2cc(Br)cc(C(F)(F)F)c2Br)c1` [N'-(2,5-Dibromo-3-trifluoromethyl-phenyl)-N-(3-ethyl-phenyl)-N-methyl-guanidine; hydrochloride] is 224 nM; for `CCc1cccc(N(C)C(N)=Nc2cc(Cl)cc(SC)c2Cl)c1` [N'-(2,5-Dichloro-3-methylsulfanyl-phenyl)-N-(3-ethyl-phenyl)-N-methyl-guanidine; hydrochloride] it is 130 nM; for `CCc1cccc(N(C)C(N)=Nc2cc(Cl)cc(C(F)(F)F)c2Cl)c1` [N'-(2,5-Dichloro-3-trifluoromethyl-phenyl)-N-(3-ethyl-phenyl)-N-methyl-guanidine; hydrochloride] it is 110 nM.
The same measure for `CCc1cccc(N(C)C(N)=Nc2cc(Cl)ccc2Cl)c1` [N'-(2,5-Dichloro-phenyl)-N-(3-ethyl-phenyl)-N-methyl-guanidine; hydrochloride]: 29 nM; for `CCc1cccc(N(C)C(N)=Nc2cc(CC)cc(CC)c2Br)c1` [N'-(2-Bromo-3,5-diethyl-phenyl)-N-(3-ethyl-phenyl)-N-methyl-guanidine; hydrochloride]: 203 nM; for `CCc1cccc(N(C)C(N)=Nc2cc(C(F)(F)F)cc(CC)c2Br)c1` [N'-(2-Bromo-3-ethyl-5-trifluoromethyl-phenyl)-N-(3-ethyl-phenyl)-N-methyl-guanidine; hydrochloride]: 205 nM.
The figure for `CCc1cccc(N(C)C(N)=Nc2cc(CC)cc(SC)c2Br)c1` [N'-(2-Bromo-5-ethyl-3-methylsulfanyl-phenyl)-N-(3-ethyl-phenyl)-N-methyl-guanidine; hydrochloride] is 180 nM; for `CCc1cccc(N(C)C(N)=Nc2cc(CC)cc(OC(F)(F)F)c2Br)c1` [N'-(2-Bromo-5-ethyl-3-trifluoromethoxy-phenyl)-N-(3-ethyl-phenyl)-N-methyl-guanidine; hydrochloride] it is 261 nM; for `CCc1cccc(N(C)C(N)=Nc2cc(CC)cc(C(F)(F)F)c2Br)c1` [N'-(2-Bromo-5-ethyl-3-trifluoromethyl-phenyl)-N-(3-ethyl-phenyl)-N-methyl-guanidine; hydrochloride] it is 221 nM.
`CCc1cccc(N(C)C(N)=Nc2ccccc2Br)c1` [N'-(2-Bromo-phenyl)-N-(3-ethyl-phenyl)-N-methyl-guanidine; hydrochloride]: the half-maximal inhibitory concentration (IC50) worked out at 125 nM.
The figure for `CCc1cccc(N(C)C(N)=Nc2cc(CC)cc(CC)c2Cl)c1` [N'-(2-Chloro-3,5-diethyl-phenyl)-N-(3-ethyl-phenyl)-N-methyl-guanidine; hydrochloride] is 112 nM; for `CCc1cccc(N(C)C(N)=Nc2cc(C)cc(CC)c2Cl)c1` [N'-(2-Chloro-3-ethyl-5-methyl-phenyl)-N-(3-ethyl-phenyl)-N-methyl-guanidine; hydrochloride] it is 45 nM.
The figure for `CCc1cccc(N(C)C(N)=Nc2cc(C(F)(F)F)cc(CC)c2Cl)c1` [N'-(2-Chloro-3-ethyl-5-trifluoromethyl-phenyl)-N-(3-ethyl-phenyl)-N-methyl-guanidine; hydrochloride] is 115 nM.
The figure for `CCc1cccc(N(C)C(N)=Nc2cc(CC)cc(SC)c2Cl)c1` [N'-(2-Chloro-5-ethyl-3-methylsulfanyl-phenyl)-N-(3-ethyl-phenyl)-N-methyl-guanidine; hydrochloride] is 178 nM.
Molecule `CCc1cccc(N(C)C(N)=Nc2cc(CC)cc(C(F)(F)F)c2Cl)c1` [N'-(2-Chloro-5-ethyl-3-trifluoromethyl-phenyl)-N-(3-ethyl-phenyl)-N-methyl-guanidine; hydrochloride] returned a 50% inhibitory concentration (IC50) of 200 nM.
On to `CCc1cccc(N(C)C(N)=Nc2ccccc2Cl)c1` [N'-(2-Chloro-phenyl)-N-(3-ethyl-phenyl)-N-methyl-guanidine; hydrochloride], for which the IC50 was found to be 72 nM. This IC50 is about 2.8-fold lower than that of the molecule before.
The figure for `CCc1cccc(N(C)C(N)=Nc2ccc(Cl)c(Cl)c2)c1` [N'-(3,4-Dichloro-phenyl)-N-(3-ethyl-phenyl)-N-methyl-guanidine; hydrochloride] is 39 nM.
`CCc1cccc(N(C)C(N)=Nc2cc(CC)cc(CC)c2F)c1` [N'-(3,5-Diethyl-2-fluoro-phenyl)-N-(3-ethyl-phenyl)-N-methyl-guanidine; hydrochloride] displayed a half-maximal inhibitory concentration (IC50) of 113 nM.
The figure for `CCc1cccc(N(C)C(N)=Nc2cccc(Br)c2)c1` [N'-(3-Bromo-phenyl)-N-(3-ethyl-phenyl)-N-methyl-guanidine; hydrochloride] is 40 nM; for `CCc1cccc(N(C)C(N)=Nc2cccc(Cl)c2)c1` [N'-(3-Chloro-phenyl)-N-(3-ethyl-phenyl)-N-methyl-guanidine; hydrochloride] it is 44 nM; for `CCc1cccc(N(C)C(N)=Nc2ccc(Cl)cc2)c1` [N'-(4-Chloro-phenyl)-N-(3-ethyl-phenyl)-N-methyl-guanidine; hydrochloride] it is 46 nM.
With `CCc1cccc(NC(N)=Nc2cccc(Cl)c2Cl)c1` [N-(2,3-Dichloro-phenyl)-N'-(3-ethyl-phenyl)-guanidine; hydrochloride], the half-inhibitory concentration (IC50) stood at 13 nM.
The figure for `CCc1cccc(NC(N)=Nc2ccc(Cl)cc2Cl)c1` [N-(2,4-Dichloro-phenyl)-N'-(3-ethyl-phenyl)-guanidine; hydrochloride] is 37 nM; for `CCc1cccc(N(C)C(=N)N(C)c2cc(Br)ccc2Br)c1` [N-(2,5-Dibromo-phenyl)-N'-(3-ethyl-phenyl)-N,N'-dimethyl-guanidine; hydrochloride] it is 381 nM.
The same measure for `CCc1cccc(NC(N)=Nc2cc(Cl)ccc2Cl)c1` [N-(2,5-Dichloro-phenyl)-N'-(3-ethyl-phenyl)-guanidine; hydrochloride]: 12 nM; for `CCc1cccc(NC(N)=Nc2c(Cl)cccc2Cl)c1` [N-(2,6-Dichloro-phenyl)-N'-(3-ethyl-phenyl)-guanidine; hydrochloride]: 14 nM; for `CCc1cccc(NC(N)=Nc2ccccc2CC)c1` [N-(2-Ethyl-phenyl)-N'-(3-ethyl-phenyl)-guanidine; hydrochloride]: 19 nM.
Take `CCc1cccc(NC(N)=Nc2ccc(Cl)c(Cl)c2)c1` [N-(3,4-Dichloro-phenyl)-N'-(3-ethyl-phenyl)-guanidine; hydrochloride]: the IC50 was 32 nM.
The same measure for `CCc1cccc(NC(N)=Nc2cc(Cl)cc(Cl)c2)c1` [N-(3,5-Dichloro-phenyl)-N'-(3-ethyl-phenyl)-guanidine; hydrochloride]: 70 nM.
The figure for `CCc1cc(CC)cc(N=C(N)Nc2cccc(CC)c2)c1` [N-(3,5-Diethyl-phenyl)-N'-(3-ethyl-phenyl)-guanidine; hydrochloride] is 8 nM.
The same measure for `CCc1cccc(NC(N)=Nc2cccc(Br)c2)c1` [N-(3-Bromo-phenyl)-N'-(3-ethyl-phenyl)-guanidine; hydrochloride]: 10 nM; for `CCc1cccc(NC(N)=Nc2cccc(Cl)c2)c1` [N-(3-Chloro-phenyl)-N'-(3-ethyl-phenyl)-guanidine; hydrochloride]: 27 nM.
Consider `CCc1cccc(N(C)C(N)=Nc2ccccc2C(C)C)c1` [N-(3-Ethyl-phenyl)-N'-(2-isopropyl-phenyl)-N-methyl-guanidine; hydrochloride], for which the IC50 was 362 nM. This IC50 is about 13-fold higher than that of the molecule before.
The figure for `CCc1cccc(NC(N)=Nc2ccccc2C(C)C)c1` [N-(3-Ethyl-phenyl)-N'-(2-isopropyl-phenyl)-guanidine; hydrochloride] is 21 nM; for `CCc1cccc(NC(N)=Nc2ccccc2C)c1` [N-(3-Ethyl-phenyl)-N'-o-tolyl-guanidine; hydrochloride] it is 11 nM; for `CCc1cccc(N(C)C(N)=Nc2cccc(SC)c2)c1` [N-(3-Ethyl-phenyl)-N-methyl-N'-(3-methylsulfanyl-phenyl)-guanidine; hydrochloride] it is 164 nM.
